Entries after “also recorded” stand apart in the source; their conditions may differ.
Assays:
[1] = test system: HIV-1 RT mutant resistance test vector V75V; experiment: Phenotypic susceptibility assay, site directed RTV V75V; format: cell-based; conditions: for effect on susceptibility (words): RTV with V75V
Description: (§1) Resistance tests were carried out with resistance test vectors using two host cell types. Resistance test vector viral particles were produced by a first host cell (the resistance test vector host cell) that was prepared by transfecting a packaging host cell with the resistance test vector and the packaging expression vector. The resistance test vector viral particles were then used to infect a second host cell (the target host cell) in which the expression of the indicator gene is measured.
The resistance test vectors containing a functional luciferase gene cassette were constructed and host cells were transfected with the resistance test vector DNA. The resistant test vectors contained patient-derived reverse transcriptase and protease sequences that were either susceptible or resistant to the antiretroviral agents, such as nucleoside reverse transcriptase inhibitors, non-nucleoside reverse transcriptase inhibitors and protease inhibitors. The resistance test vector viral particles produced by transfecting the resistance test vector DNA into host cells, either in the presence or absence of protease inhibitors, were used to infect target host cells grown either in the absence of NRTI or NNRTI or In the presence of increasing concentrations of the drug. […] The IC50 values were determined by plotting percent drug inhibition vs. log 10 drug concentration.
(§2) Host cells were seeded in 10-cm-diameter dishes and were transfected several days after plating with resistance test vector plasmid DNA and the envelope expression vector. […] HIV capsid protein (p24) levels in the harvested cell culture media were determined by an EIA method as described by the manufacturer (SIAC; Frederick, Md.). […] The inhibitory effect of the drug was determined using the following equation: […]
Genotypic changes that are observed to correlate with changes in phenotypic patterns of drug susceptibility are evaluated by construction of resistance test vectors containing the specific mutation on a defined, wild-type (drug susceptible) genetic background. […]

[2] = test system: HIV-1 RT mutant resistance test vector A62V+V75I; experiment: Phenotypic susceptibility assay, site directed RTV A62V+V75I; format: cell-based; conditions: RTV with A62V+V75I
Description: as §1
The resistance test vectors containing a functional luciferase gene cassette were constructed and host cells were transfected with the resistance test vector DNA. […] The IC50 values were determined by plotting percent drug inhibition vs. log 10 drug concentration.
as §2

[3] = test system: patient RTV-621, RTV-285, RTV-690, RTV-770 and RTV-771 (T69SSA, T69SSG, T69SSS); experiment: Phenotypic susceptibility assay, patient isolates with T69SSX mutations/insertions; format: cell-based, HIV-1; conditions: for susceptibility compared to wild-type control RTV: patient samples with insertions at 69
Description: In these experiments patient-derived segment(s) corresponding to the HIV protease and reverse transcriptase coding regions were either patient-derived segments amplified by the reverse transcription-polymerase chain reaction method (RT-PCR) using viral RNA isolated from viral particles present in the serum of HIV-infected individuals or were mutants of wild type HIV-1 made by site directed mutagenesis of a parental clone of resistance test vector DNA. Isolation of viral RNA was performed using standard procedures (e.g. RNAgents Total RNA Isolation System, Promega, Madison Wis. or RNAzol, Tel-Test, Friendswood, Tex.). The RT-PCR protocol was divided into two steps. A retroviral reverse transcriptase [e.g. Moloney MuLV reverse transcriptase (Roche Molecular Systems, Inc., Branchburg, N.J.), or avian myeloblastosis virus (AMV) reverse transcriptase, (Boehringer Mannheim, Indianapolis, Ind.)] was used to copy viral RNA into cDNA. The cDNA was then amplified using a thermostable DNA polymerase [e.g. Taq (Roche Molecular Systems, Inc., Branchburg, N.J.), Tth (Roche Molecular Systems, Inc., Branchburg, N.J.), PrimeZyme (isolated from Thermus brockianus, Biometra, Gottingen, Germany)] or a combination of thermostable polymerases as described for the performance of “long PCR” (Barnes, W. M., (1994) Proc. Natl. Acad. Sci, USA 91, 2216-2220) [e.g. Expand High Fidelity PCR System (Taq+Pwo), (Boehringer Mannheim. Indianapolis, Ind.) OR GeneAmp XL PCR kit (Tth+Vent), (Roche Molecular Systems, Inc., Branchburg, N.J.)].
Resistance test vectors incorporating the “test” patient-derived segments were constructed as described in PCT International Application No. PCT/US97/01609, filed Jan. 29, 1997 using an amplified DNA product of 1.5 kB prepared by RT-PCR using viral RNA as a template and oligonucleotides PDSApa (1) and PDSAge (2) as primers, followed by digestion with ApaI and AgeI or the isoschizimer PINAI. To ensure that the plasmid DNA corresponding to the resultant resistance test vector comprises a representative sample of the HIV viral quasi-species present in the serum of a given patient, many (>100) independent E. coli transformants obtained in the construction of a given resistance test vector were pooled and used for the preparation of plasmid DNA.
as §1
The resistance test vectors containing a functional luciferase gene cassette were constructed and host cells were transfected with the resistance test vector DNA. The resistant test vectors contained patient-derived reverse transcriptase and protease sequences that were either susceptible or resistant to the antiretroviral agents, such as nucleoside reverse transcriptase inhibitors, non-nucleoside reverse transcriptase inhibitors and protease inhibitors. The resistance test vector viral particles produced by transfecting the resistance test vector DNA into host cells, either in the presence or absence of protease inhibitors, were used to infect target host cells grown either in the absence of NRTI or NNRTI or In the presence of increasing concentrations of the drug. The amount of luciferase activIty produced in infected target host cells in the presence of drug was compared to the amount of luciferase produced in infected target host cells in the absence of drug. Drug resistance was measured as the amount of drug required to inhibit by 50% the luciferase activity detected in the absence of drug (Inhibitory concentration 50%, IC50). […]

[4] = test system: HIV with RT Lys65→Arg mutation; conditions: Lys65→Arg (K65R); cited from earlier work

Structure (SMILES) | effect on susceptibility (words) [1] | fold reduction in susceptibility ([1]; RTV with V75V vs control RTV) | effect on susceptibility (words) [2] | fold reduced susceptibility ([3]; four patient viruses with T69SSX mutations/insertions (FIG. 5)) | susceptibility compared to wild-type control RTV [3] | fold increase in IC50 / reduction in susceptibility [4]
Cc1cn([C@H]2C=C[C@@H](CO)O2)c(=O)[nH]c1=O [d4T, stavudine] | did not reduce d4T susceptibility | less than two-fold | no differences in their susceptibility to d4T; also recorded: had no effect on d4T; also recorded: had no affect on d4T susceptibility | 2-10 fold | decrease in susceptibility to d4T; also recorded: significant reduction in d4T susceptibility; also recorded: decreased susceptibility | –
Cc1cn([C@H]2C[C@H](N=[N+]=[N-])[C@@H](CO)O2)c(=O)[nH]c1=O [AZT, zidovudine] | increased AZT susceptibility slightly | – | slight increases in susceptibility to AZT; also recorded: did not alter the reduced level of AZT susceptibility caused by the V75I mutation | – | decreased susceptibility | –
Nc1ccn([C@H]2CC[C@@H](CO)O2)c(=O)n1 [ddC, zalcitabine] | – | – | – | – | decreased susceptibility | five-fold to ten-fold
Nc1nc(NC2CC2)c2ncn([C@H]3C=C[C@@H](CO)C3)c2n1 [ABC, abacavir] | – | – | – | – | decreased susceptibility | –
O=c1[nH]cnc2c1ncn2[C@H]1CC[C@@H](CO)O1 [ddI, didanosine] | – | – | – | – | decreased susceptibility | three-fold to five-fold

From patent US6489098B1, “Means and methods for monitoring nucleoside reverse transcriptase inhibitor antiretroviral therapy and guiding therapeutic decisions in the treatment of HIV/AIDS” (ViroLogic, Inc., priority 1998, dated 2002)
